According to KR20220022782A, “아모디아퀸 및 아르테수네이트계 약물을 유효성분으로 함유하는 제2형 당뇨병 예방 또는 치료용 약학적 조성물” (priority 2020, dated 2022):

Experiments:
in vitro = conditions: mouse, c2c12 myoblast cells
[1] = tested on: C2C12 myoblast cell line (C2C12 myoblast 세포주); assay: in vitro
[2] = tested on: C2C12 myotube cell line (C2C12 myotube 세포주); assay: Glucose uptake (2-NBDG, Glucose uptake cell-based assay kit) in palmitic acid-induced insulin-resistant C2C12 myotubes (Example 3); design: species or system mouse; conditions: single agent; general statement
[3] = tested on: Akt phosphorylation (Akt 인산화); assay: Akt phosphorylation (western blotting) in palmitic acid-induced insulin-resistant C2C12 myotubes (Example 2); assay type: cell-based, mouse; conditions: single agent; general statement

SMILES	viability at 12.5 µM (in vitro) [%]	cytotoxicity (in words) [1]	promotion of glucose uptake (in words) [2]	improvement of insulin resistance (in words) [3]	viability at 25 µM (in vitro) [%]
C[C@H]1[C@H](OC(=O)CCC(=O)O)O[C@@H]2O[C@@]3(C)CC[C@H]4[C@H](C)CC[C@@H]1[C@@]24OO3 [아르테수네이트, 아르테수네이트(artesunate)]	~80	세포 독성이 없음	–	–	–
CCN(CC)Cc1cc(Nc2ccnc3cc(Cl)ccc23)ccc1O [아모디아퀸, 아모디아퀸(amodiaquine)]	–	세포 독성이 없음	미미한 수준에 불과하다	미미한 수준에 불과하다	~80
